Reference: PubChem BioAssay (NCI)
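GI50: concentration for 50% inhibition of growth. TGI marks complete inhibition of growth.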

Legend:
Test in all cases: DTP human tumour cell line panel, 384-well format
IGROV1 ovarian = tested on: IGROV1 ovarian
ACHN renal = tested on: ACHN renal
SW-620 colon = tested on: SW-620 colon
UACC-257 melanoma = tested on: UACC-257 melanoma
PC-3 prostate = tested on: PC-3 prostate
NCI/ADR-RES ovarian = tested on: NCI/ADR-RES ovarian
SR leukemia = tested on: SR leukemia
OVCAR-8 ovarian = tested on: OVCAR-8 ovarian
T-47D breast = tested on: T-47D breast
SK-OV-3 ovarian = tested on: SK-OV-3 ovarian
M14 melanoma = tested on: M14 melanoma
UO-31 renal = tested on: UO-31 renal
HCC-2998 colon = tested on: HCC-2998 colon
HOP-92 NSCLC = tested on: HOP-92 NSCLC
NCI-H322M lung = tested on: NCI-H322M lung
NCI-H460 NSCLC = tested on: NCI-H460 NSCLC
A549 NSCLC = tested on: A549 NSCLC
SF-295 CNS = tested on: SF-295 CNS
A498 renal = tested on: A498 renal
U251 glioblastoma = tested on: U251 glioblastoma
NCI-H226 lung = tested on: NCI-H226 lung
HL-60(TB) leukemia = tested on: HL-60(TB) leukemia
SF-539 CNS = tested on: SF-539 CNS
SK-MEL-28 melanoma = tested on: SK-MEL-28 melanoma
HCT-116 colon = tested on: HCT-116 colon
786-0 renal = tested on: 786-0 renal
OVCAR-4 ovarian = tested on: OVCAR-4 ovarian
TK-10 renal = tested on: TK-10 renal
K-562 leukemia = tested on: K-562 leukemia
LOX IMVI melanoma = tested on: LOX IMVI melanoma
NCI-H23 lung = tested on: NCI-H23 lung
SK-MEL-5 melanoma = tested on: SK-MEL-5 melanoma
MALME-3M melanoma = tested on: MALME-3M melanoma
KM12 colon = tested on: KM12 colon
BT-549 breast = tested on: BT-549 breast
HT29 colon = tested on: HT29 colon
SN12C renal = tested on: SN12C renal
OVCAR-3 ovarian = tested on: OVCAR-3 ovarian
SF-268 CNS = tested on: SF-268 CNS
RPMI-8226 leukemia = tested on: RPMI-8226 leukemia
CCRF-CEM leukemia = tested on: CCRF-CEM leukemia
MDA-MB-468 breast = tested on: MDA-MB-468 breast
COLO 205 colon = tested on: COLO 205 colon
SNB-19 CNS = tested on: SNB-19 CNS
OVCAR-5 ovarian = tested on: OVCAR-5 ovarian
NCI-H522 lung = tested on: NCI-H522 lung
DU-145 prostate = tested on: DU-145 prostate
MDA-MB-435 melanoma = tested on: MDA-MB-435 melanoma
MOLT-4 leukemia = tested on: MOLT-4 leukemia
HCT-15 colon = tested on: HCT-15 colon
HOP-62 NSCLC = tested on: HOP-62 NSCLC
UACC-62 melanoma = tested on: UACC-62 melanoma
SK-MEL-2 melanoma = tested on: SK-MEL-2 melanoma
CAKI-1 renal = tested on: CAKI-1 renal
MDA-MB-231 breast = tested on: MDA-MB-231 breast
RXF 393 renal = tested on: RXF 393 renal
MCF7 breast = tested on: MCF7 breast

## COc1ccccc1-c1nccc(COc2ccccc2C[C@@H](Oc2ncnc3sc(-c4ccc(F)cc4)c(-c4ccc(OCCN5CCN(C)CC5)c(Cl)c4C)c23)C(=O)O)n1
IGROV1 ovarian
  GI50: 1660 nM
  TGI: 3090 nM
ACHN renal
  GI50: 4570 nM
  TGI: 14800 nM
SW-620 colon
  GI50: 1880 nM
  TGI: 3360 nM
UACC-257 melanoma
  GI50: 1700 nM
  TGI: 3400 nM
PC-3 prostate
  GI50: 1820 nM
  TGI: 3240 nM
NCI/ADR-RES ovarian
  GI50: 26800 nM
  TGI: > 100000 nM
SR leukemia
  GI50: < 10 nM
  TGI: < 10 nM
OVCAR-8 ovarian
  GI50: 1770 nM
  TGI: 3240 nM
T-47D breast
  GI50: 1580 nM
  TGI: 3430 nM
SK-OV-3 ovarian
  GI50: 2950 nM
  TGI: 9170 nM
M14 melanoma
  GI50: 1540 nM
  TGI: 2890 nM
UO-31 renal
  GI50: 4230 nM
  TGI: 14200 nM
HCC-2998 colon
  GI50: 1190 nM
  TGI: 2520 nM
HOP-92 NSCLC
  GI50: 1720 nM
  TGI: 3100 nM
NCI-H322M lung
  GI50: 1910 nM
  TGI: 3720 nM
NCI-H460 NSCLC
  GI50: 1330 nM
  TGI: 3540 nM
A549 NSCLC
  GI50: 10600 nM
  TGI: 22500 nM
SF-295 CNS
  GI50: 1400 nM
  TGI: 2720 nM
A498 renal
  GI50: 2260 nM
  TGI: 5430 nM
U251 glioblastoma
  GI50: 1810 nM
  TGI: 3370 nM
NCI-H226 lung
  GI50: 2040 nM
  TGI: 3640 nM
HL-60(TB) leukemia
  GI50: < 10 nM
  TGI: < 10 nM
SF-539 CNS
  GI50: 1200 nM
  TGI: 2470 nM
SK-MEL-28 melanoma
  GI50: 1420 nM
  TGI: 2730 nM
HCT-116 colon
  GI50: 1940 nM
  TGI: 3530 nM
786-0 renal
  GI50: 1780 nM
  TGI: 3210 nM
OVCAR-4 ovarian
  GI50: 163 nM
  TGI: 3110 nM
TK-10 renal
  GI50: 2380 nM
  TGI: 5650 nM
K-562 leukemia
  GI50: 1930 nM
  TGI: 3480 nM
LOX IMVI melanoma
  GI50: 1980 nM
  TGI: 3420 nM
NCI-H23 lung
  GI50: 45.3 nM
  TGI: 380 nM
SK-MEL-5 melanoma
  GI50: 1470 nM
  TGI: 2800 nM
MALME-3M melanoma
  GI50: 1080 nM
  TGI: 2290 nM
KM12 colon
  GI50: 1730 nM
  TGI: 3140 nM
BT-549 breast
  GI50: 1270 nM
  TGI: 2550 nM
HT29 colon
  GI50: 1830 nM
  TGI: 3330 nM
SN12C renal
  GI50: 1520 nM
  TGI: 2900 nM
OVCAR-3 ovarian
  GI50: 1850 nM
  TGI: 3270 nM
SF-268 CNS
  GI50: 1570 nM
  TGI: 2930 nM
RPMI-8226 leukemia
  GI50: < 10 nM
  TGI: < 10 nM
CCRF-CEM leukemia
  GI50: 29.6 nM
  TGI: 801 nM
MDA-MB-468 breast
  GI50: 10.9 nM
  TGI: 54 nM
COLO 205 colon
  GI50: 1820 nM
  TGI: 3540 nM
SNB-19 CNS
  GI50: 1870 nM
  TGI: 3360 nM
OVCAR-5 ovarian
  GI50: 2730 nM
  TGI: 6270 nM
NCI-H522 lung
  GI50: < 10 nM
  TGI: 95.9 nM
DU-145 prostate
  GI50: 2130 nM
  TGI: 4580 nM
MDA-MB-435 melanoma
  GI50: 391 nM
  TGI: 1600 nM
MOLT-4 leukemia
  GI50: < 10 nM
  TGI: 17.7 nM
HCT-15 colon
  GI50: 5290 nM
  TGI: 16200 nM
HOP-62 NSCLC
  GI50: 1710 nM
  TGI: 3270 nM
UACC-62 melanoma
  GI50: 20.6 nM
  TGI: 57 nM
SK-MEL-2 melanoma
  GI50: < 10 nM
  TGI: < 10 nM
CAKI-1 renal
  GI50: 2750 nM
  TGI: 6510 nM
MDA-MB-231 breast
  GI50: 1570 nM
  TGI: 2960 nM
RXF 393 renal
  GI50: 78.6 nM
  TGI: 1040 nM
MCF7 breast
  GI50: 46.2 nM
  TGI: 1040 nM
